Data taken from US12275731B2, “Azaindole inhibitors of wild-type and mutant forms of LRRK2” (DANA-FARBER CANCER INSTITUTE, INC., priority 2018, dated 2025).

Tests used:
Assay in all cases: KinomeScan profiling
Assay type in all cases: binding
TAK1 = molecular target: T1, TAK1 (Homo sapiens, UniProt O43318); settings: TAK1, 1 μM; read-out: % control
T1 construct: purchased KinomeScan® (panel service)
T1 sequence (O43318 1-606): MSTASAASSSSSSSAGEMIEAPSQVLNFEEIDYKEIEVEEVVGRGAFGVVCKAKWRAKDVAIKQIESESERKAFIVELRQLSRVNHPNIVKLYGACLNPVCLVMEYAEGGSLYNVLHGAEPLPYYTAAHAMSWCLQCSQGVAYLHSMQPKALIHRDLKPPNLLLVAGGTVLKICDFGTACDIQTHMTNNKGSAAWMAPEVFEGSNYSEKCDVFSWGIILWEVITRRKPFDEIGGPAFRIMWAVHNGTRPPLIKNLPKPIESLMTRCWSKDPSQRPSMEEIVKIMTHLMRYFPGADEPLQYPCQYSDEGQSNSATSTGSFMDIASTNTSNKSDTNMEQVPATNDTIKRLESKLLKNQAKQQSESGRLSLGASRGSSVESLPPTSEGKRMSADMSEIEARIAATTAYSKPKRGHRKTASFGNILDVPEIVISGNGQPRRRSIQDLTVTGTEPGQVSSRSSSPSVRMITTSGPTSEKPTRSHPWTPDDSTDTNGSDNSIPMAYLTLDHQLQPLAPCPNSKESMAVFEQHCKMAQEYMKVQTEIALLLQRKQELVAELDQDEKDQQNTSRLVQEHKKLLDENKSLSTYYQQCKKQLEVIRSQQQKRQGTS
In short: (§1)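 At 1 μM in DMSO, compounds are run through a broad 468-member kinase panel. The luminescent read-out is normalised so that vehicle gives 100% and a positive control gives 0%; any kinase falling below 35% is treated as a target.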

PFTAIRE2 = PFTAIRE2 (Homo sapiens, UniProt Q96Q40); settings: PFTAIRE2, 1 μM; read-out: % control
In short: as §1

KIT = molecular target: T2, KIT (Homo sapiens, UniProt P10721); settings: read-out: % control
T2 construct: purchased KinomeScan®
In short: as §1

FLT3 = molecular target: T3, FLT3 (Homo sapiens, UniProt P36888); settings: FLT3, 1 μM; read-out: % control
T3 sequence (P36888 27-993): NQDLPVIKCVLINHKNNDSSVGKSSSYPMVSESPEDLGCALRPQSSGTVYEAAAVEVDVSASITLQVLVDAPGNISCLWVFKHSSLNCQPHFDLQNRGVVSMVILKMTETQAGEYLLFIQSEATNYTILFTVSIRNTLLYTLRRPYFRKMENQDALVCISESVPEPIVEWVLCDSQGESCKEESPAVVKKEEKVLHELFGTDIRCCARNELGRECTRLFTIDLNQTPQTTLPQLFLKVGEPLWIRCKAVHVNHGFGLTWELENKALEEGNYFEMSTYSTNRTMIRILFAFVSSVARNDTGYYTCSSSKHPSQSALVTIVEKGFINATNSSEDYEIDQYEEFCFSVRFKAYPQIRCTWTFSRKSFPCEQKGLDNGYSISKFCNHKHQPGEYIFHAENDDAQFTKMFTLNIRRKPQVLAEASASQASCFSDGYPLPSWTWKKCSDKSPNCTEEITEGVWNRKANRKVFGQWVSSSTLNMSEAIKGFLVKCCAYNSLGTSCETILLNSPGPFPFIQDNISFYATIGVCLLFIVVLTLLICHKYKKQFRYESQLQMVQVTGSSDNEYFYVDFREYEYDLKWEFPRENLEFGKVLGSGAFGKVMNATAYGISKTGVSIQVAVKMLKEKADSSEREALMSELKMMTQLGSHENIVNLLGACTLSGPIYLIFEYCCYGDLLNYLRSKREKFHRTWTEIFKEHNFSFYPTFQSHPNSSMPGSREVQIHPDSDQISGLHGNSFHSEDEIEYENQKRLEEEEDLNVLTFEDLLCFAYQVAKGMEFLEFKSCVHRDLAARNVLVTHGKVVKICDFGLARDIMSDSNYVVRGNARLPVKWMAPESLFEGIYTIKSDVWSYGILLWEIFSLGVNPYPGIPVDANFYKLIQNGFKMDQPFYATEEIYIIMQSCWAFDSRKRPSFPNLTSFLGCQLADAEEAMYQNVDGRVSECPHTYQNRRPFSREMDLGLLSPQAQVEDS
In short: as §1

EGFR(L861Q) = EGFR(L861Q) (Homo sapiens, UniProt P00533, L861Q); settings: read-out: % control
In short: as §1

HASPIN = molecular target: T4, HASPIN (Homo sapiens, UniProt Q8TF76); settings: read-out: % control
T4 sequence (Q8TF76 1-798): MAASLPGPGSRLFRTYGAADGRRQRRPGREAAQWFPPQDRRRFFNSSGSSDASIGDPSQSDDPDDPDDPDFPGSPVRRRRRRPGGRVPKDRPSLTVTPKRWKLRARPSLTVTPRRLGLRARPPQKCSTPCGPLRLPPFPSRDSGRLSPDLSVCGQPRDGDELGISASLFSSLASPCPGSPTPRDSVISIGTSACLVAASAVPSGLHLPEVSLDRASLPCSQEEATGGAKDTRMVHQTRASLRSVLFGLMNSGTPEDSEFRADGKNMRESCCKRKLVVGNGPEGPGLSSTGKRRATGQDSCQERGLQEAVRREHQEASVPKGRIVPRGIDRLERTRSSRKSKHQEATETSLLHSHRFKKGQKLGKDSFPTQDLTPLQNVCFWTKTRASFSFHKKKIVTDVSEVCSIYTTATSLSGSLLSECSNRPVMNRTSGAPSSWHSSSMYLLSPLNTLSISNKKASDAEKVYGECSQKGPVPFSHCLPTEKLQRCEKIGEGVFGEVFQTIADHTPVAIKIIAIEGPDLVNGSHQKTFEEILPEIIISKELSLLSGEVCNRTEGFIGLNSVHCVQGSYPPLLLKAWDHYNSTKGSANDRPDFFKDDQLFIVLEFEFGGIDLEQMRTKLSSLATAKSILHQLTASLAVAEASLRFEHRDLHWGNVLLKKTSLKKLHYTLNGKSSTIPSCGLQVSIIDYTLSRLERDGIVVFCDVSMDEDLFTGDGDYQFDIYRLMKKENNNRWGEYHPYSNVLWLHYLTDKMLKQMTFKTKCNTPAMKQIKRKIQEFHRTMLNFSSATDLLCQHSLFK
In short: as §1

[1] = molecular target: T5, ABL1(F317L)-phosphorylated (Homo sapiens, UniProt P00519, F317L); settings: read-out: % control
T5 construct: purchased KinomeScan®
In short: as §1

T5 sequence (P00519 whole entry F317L): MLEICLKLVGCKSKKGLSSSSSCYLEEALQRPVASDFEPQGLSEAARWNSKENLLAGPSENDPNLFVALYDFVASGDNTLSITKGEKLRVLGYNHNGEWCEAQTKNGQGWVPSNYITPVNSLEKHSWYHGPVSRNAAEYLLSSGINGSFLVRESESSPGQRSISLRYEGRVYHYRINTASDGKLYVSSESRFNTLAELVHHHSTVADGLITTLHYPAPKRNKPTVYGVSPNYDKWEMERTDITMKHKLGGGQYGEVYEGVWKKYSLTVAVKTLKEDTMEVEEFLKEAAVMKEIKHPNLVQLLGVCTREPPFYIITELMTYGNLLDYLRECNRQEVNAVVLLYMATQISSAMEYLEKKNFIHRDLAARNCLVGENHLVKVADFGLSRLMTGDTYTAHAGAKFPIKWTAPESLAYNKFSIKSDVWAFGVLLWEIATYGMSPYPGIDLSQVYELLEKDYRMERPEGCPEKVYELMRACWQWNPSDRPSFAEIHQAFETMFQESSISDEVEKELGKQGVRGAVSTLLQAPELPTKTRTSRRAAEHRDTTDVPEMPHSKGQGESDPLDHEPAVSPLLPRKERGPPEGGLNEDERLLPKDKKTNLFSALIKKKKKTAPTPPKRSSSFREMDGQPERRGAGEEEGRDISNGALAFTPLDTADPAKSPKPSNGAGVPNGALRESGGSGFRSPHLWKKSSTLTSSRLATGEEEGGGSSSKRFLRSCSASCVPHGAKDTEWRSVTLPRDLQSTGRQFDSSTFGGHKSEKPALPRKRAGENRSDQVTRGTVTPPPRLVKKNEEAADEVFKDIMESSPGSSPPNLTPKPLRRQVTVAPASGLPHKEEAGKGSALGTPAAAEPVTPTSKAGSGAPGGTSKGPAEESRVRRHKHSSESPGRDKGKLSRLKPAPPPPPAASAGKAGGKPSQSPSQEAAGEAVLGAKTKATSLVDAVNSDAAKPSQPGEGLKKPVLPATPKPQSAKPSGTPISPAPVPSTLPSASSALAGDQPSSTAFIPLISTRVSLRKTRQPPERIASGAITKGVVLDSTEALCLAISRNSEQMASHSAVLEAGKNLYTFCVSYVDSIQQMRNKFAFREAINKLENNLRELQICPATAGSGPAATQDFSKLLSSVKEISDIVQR
EGFR(L861Q), sequence (P00533 25-1210 L861Q): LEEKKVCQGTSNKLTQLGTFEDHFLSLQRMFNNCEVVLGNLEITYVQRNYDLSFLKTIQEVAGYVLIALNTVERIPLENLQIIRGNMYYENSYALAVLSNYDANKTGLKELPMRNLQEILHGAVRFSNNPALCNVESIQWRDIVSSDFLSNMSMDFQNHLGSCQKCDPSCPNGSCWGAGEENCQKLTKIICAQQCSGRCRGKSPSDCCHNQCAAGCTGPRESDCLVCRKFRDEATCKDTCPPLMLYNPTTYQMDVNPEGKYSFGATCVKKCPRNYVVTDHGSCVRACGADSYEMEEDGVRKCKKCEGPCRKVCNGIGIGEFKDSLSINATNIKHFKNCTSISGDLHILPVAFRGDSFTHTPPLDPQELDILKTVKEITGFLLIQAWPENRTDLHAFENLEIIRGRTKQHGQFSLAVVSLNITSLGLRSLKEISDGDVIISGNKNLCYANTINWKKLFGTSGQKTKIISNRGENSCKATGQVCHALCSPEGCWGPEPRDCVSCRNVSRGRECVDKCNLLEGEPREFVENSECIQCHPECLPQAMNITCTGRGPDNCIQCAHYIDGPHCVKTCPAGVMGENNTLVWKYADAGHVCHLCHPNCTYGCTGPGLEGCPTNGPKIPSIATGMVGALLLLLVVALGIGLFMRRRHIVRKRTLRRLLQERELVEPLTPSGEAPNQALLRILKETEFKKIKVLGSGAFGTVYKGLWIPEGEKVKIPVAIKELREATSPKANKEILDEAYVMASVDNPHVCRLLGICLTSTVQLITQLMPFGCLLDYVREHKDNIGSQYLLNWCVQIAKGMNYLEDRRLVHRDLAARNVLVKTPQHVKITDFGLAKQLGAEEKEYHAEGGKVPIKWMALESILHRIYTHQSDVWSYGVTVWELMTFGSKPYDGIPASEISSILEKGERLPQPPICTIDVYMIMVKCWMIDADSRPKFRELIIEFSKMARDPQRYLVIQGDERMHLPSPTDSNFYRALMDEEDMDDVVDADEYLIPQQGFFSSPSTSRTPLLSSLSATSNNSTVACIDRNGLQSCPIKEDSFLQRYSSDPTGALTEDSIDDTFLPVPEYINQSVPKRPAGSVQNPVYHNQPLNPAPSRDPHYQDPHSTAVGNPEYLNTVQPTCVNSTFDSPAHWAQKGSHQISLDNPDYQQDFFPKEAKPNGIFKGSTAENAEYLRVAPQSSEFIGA
PFTAIRE2, sequence (Q96Q40 whole entry): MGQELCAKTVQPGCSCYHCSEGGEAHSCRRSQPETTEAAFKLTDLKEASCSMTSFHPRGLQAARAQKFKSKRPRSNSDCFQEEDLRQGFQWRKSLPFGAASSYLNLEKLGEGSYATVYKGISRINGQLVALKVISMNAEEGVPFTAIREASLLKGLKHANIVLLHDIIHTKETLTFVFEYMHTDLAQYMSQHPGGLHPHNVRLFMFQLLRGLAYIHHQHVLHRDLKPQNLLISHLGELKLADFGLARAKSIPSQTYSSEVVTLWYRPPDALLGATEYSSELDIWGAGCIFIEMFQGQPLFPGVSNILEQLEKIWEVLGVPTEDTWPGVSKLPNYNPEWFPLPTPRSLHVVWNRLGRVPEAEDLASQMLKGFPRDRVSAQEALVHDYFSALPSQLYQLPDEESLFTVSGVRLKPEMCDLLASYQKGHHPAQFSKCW
T2 sequence (P10721 26-976): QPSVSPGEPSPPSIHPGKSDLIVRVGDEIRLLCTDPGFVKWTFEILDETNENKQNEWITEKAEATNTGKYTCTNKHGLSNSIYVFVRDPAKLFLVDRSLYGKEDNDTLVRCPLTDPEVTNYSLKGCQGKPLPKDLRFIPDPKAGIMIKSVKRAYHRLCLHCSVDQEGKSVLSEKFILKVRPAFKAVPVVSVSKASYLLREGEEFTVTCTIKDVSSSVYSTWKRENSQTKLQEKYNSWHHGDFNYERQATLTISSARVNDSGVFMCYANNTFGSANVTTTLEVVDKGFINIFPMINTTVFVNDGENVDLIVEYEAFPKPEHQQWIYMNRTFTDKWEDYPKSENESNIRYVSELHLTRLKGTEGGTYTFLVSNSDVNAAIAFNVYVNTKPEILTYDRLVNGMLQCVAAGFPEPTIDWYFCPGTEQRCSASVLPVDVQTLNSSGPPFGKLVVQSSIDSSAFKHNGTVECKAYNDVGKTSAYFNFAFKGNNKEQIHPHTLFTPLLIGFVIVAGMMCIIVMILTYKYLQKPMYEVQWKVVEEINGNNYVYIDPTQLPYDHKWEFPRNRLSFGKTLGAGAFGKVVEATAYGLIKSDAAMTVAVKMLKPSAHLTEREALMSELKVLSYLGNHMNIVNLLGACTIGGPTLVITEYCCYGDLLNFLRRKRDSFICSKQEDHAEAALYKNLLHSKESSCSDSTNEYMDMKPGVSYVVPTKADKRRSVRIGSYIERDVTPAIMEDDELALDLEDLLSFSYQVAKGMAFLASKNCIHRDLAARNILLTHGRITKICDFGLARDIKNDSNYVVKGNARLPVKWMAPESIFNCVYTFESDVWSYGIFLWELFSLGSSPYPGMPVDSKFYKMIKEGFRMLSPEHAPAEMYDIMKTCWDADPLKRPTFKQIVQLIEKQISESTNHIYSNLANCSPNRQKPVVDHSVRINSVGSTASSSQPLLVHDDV

## O=C(c1ccc(-c2cnc3[nH]cc(Cl)c3c2NC2CCCC2)cc1)N1CCC(N2CCOCC2)CC1 [Compound 101, (4-(3-chloro-4-(cyclopentylamino)-1H-pyrrolo[2,3-b]pyridin-5-yl)phenyl)(4-morpholinopiperidin-1-yl)methanone]
TAK1
  remaining binding at 1 µM: 6.1%
PFTAIRE2
  remaining binding at 1 µM: 91%
KIT
  remaining binding at 1 µM: 58%
FLT3
  remaining binding at 1 µM: 4.9%
EGFR(L861Q)
  remaining binding at 1 µM: 89%
HASPIN
  remaining binding at 1 µM: 22%
[1]
  remaining binding at 1 µM: 43%

## CNc1c(-c2cnn([C@H]3CCN(C(C)=O)C[C@@H]3F)c2)cnc2[nH]cc(Cl)c12 [Compound 77, 1-((3S,4S)-4-(4-(3-chloro-4-(methylamino)-1H-pyrrolo[2,3-b]pyridin-5-yl)-1H-pyrazol-1-yl)-3-fluoropiperidin-1-yl)ethan-1-one]
TAK1
  remaining binding at 1 µM: 21%
PFTAIRE2
  remaining binding at 1 µM: 100%
KIT
  remaining binding at 1 µM: 4.8%
FLT3
  remaining binding at 1 µM: 3.3%
EGFR(L861Q)
  remaining binding at 1 µM: 96%
HASPIN
  remaining binding at 1 µM: 9.8%
[1]
  remaining binding at 1 µM: 91%

## CNc1c(-c2ccc(C(=O)N3CCC(N4CCOCC4)CC3)cc2)cnc2[nH]cc(Cl)c12 [Compound 96, (4-(3-chloro-4-(methylamino)-1H-pyrrolo[2,3-b]pyridin-5-yl)phenyl)(4-morpholinopiperidin-1-yl)methanone]
TAK1
  remaining binding at 1 µM: 6.9%
PFTAIRE2
  remaining binding at 1 µM: 100%
KIT
  remaining binding at 1 µM: 11%
FLT3
  remaining binding at 1 µM: 6.7%
EGFR(L861Q)
  remaining binding at 1 µM: 90%
HASPIN
  remaining binding at 1 µM: 1.3%
[1]
  remaining binding at 1 µM: 81%
